According to US10485236B2, “Triazole derivatives, intermediates thereof and their use as fungicides” (Bayer CropScience Aktiengesellschaft, priority 2015, dated 2019):
Marks after values point to notes of the source that are not given here.

Legend:
Sphaerotheca fuliginea [1] = assay: Example M: in vivo preventive test on Sphaerotheca (cucumbers); comparison of phenoxy-pyridyl compounds vs. known phenoxy-phenyl compounds; conditions: Podosphaera fuliginea, 168 h, rate of application 10 ppm, evaluated 7 days after inoculation, read-out: Efficacy in %
Method: Example M: In Vivo Preventive Test on Sphaerotheca (Cucumbers); Comparison of Phenoxy-pyridyl Compounds According to the Invention Vs. Known Phenoxy-phenyl Compounds [table] To produce a suitable preparation of active compound, 1 part by weight of active compound is mixed with the above stated amounts of solvent and emulsifier, and the concentrate is diluted with water to the desired concentration. To test for preventive activity, young plants are sprayed with the preparation of active compound at the stated rate of application. After the spray coating has dried on, the plants are inoculated with an aqueous spore suspension of Sphaerotheca fuliginea. The plants are then placed in a greenhouse at approximately 23° C. and a relative atmospheric humidity of approximately 70%. The test is evaluated 7 days after the inoculation. 0% means an efficacy which corresponds to that of the untreated control, while an efficacy of 100% means that no disease is observed. [table]

[2] = Measurement of LogP values by HPLC on reversed phase columns (EEC directive 79/831 Annex V.A8); type: physicochemical; conditions: for chromatographic logP: reversed phase HPLC column
Method: [table] If more than one Log P value is available within the same method, all the values are given and separated by “+”. Calibration was done with straight-chain alkan2-ones (with 3 to 16 carbon atoms) with known Log P values (measurement of Log P values using retention times with linear interpolation between successive alkanones). Lambda-max-values were determined using UV-spectra from 200 nm to 400 nm and the peak values of the chromatographic signals.

Uromyces appendiculatus = assay: Example E: in vivo preventive test on Uromyces appendiculatus (bean rust); conditions: 264 h, 500 ppm of active ingredient, bean plants, preventive spray, evaluated 11 days after inoculation, read-out: efficacy
Method: (§1) Example E: In Vivo Preventive Test on Uromyces appendiculatus (Bean Rust) [table] The active ingredients are made soluble and homogenized in a mixture of Dimethyl sulfoxide/Acetone//Tween® 80 and then diluted in water to the desired concentration. The young plants of bean are treated by spraying the active ingredient prepared as described above. Control plants are treated only with an aqueous solution of Acetone/Dimethyl sulfoxide/Tween® 80. After 24 hours, the plants are contaminated by spraying the leaves with an aqueous suspension of Uromyces appendiculatus spores. The contaminated bean plants are incubated for 24 hours at 20° C. and at 100% relative humidity and then for 10 days at 20° C. and at 70-80% relative humidity. The test is evaluated 11 days after the inoculation. 0% means an efficacy which corresponds to that of the control plants while an efficacy of 100% means that no disease is observed.

Puccinia recondita = assay: Example B: in vivo preventive test on Puccinia recondita (brown rust on wheat); conditions: 264 h, 500 ppm of active ingredient, wheat plants, preventive spray, evaluated 11 days after inoculation, read-out: efficacy
Method: as §1, with “B:” for “E:”, “Puccinia recondita (Brown Rust on Wheat)” for “Uromyces appendiculatus (Bean Rust)”, “wheat” for “bean”, “Puccinia recondita” for “Uromyces appendiculatus”

Sphaerotheca fuliginea [3] = assay: Example D: in vivo preventive test on Sphaerotheca fuliginea (powdery mildew on cucurbits); conditions: Podosphaera fuliginea, 360 h; 500 ppm of active ingredient; gherkin plants, preventive spray; evaluated 15 days after inoculation; read-out: efficacy
Method: Example D: In Vivo Preventive Test on Sphaerotheca fuliginea (Powdery Mildew on Cucurbits) [table] The active ingredients are made soluble and homogenized in a mixture of Dimethyl sulfoxide/Acetone//Tween® 80 and then diluted in water to the desired concentration. The young plants of gherkin are treated by spraying the active ingredient prepared as described above. Control plants are treated only with an aqueous solution of Acetone/Dimethyl sulfoxide/Tween® 80. After 24 hours, the plants are contaminated by spraying the leaves with an aqueous suspension of Sphaerotheca fuliginea spores. The contaminated gherkin plants are incubated for 72 hours at 18° C. and at 100% relative humidity and then for 12 days at 20° C. and at 70-80% relative humidity. The test is evaluated 15 days after the inoculation. 0% means an efficacy which corresponds to that of the control plants while an efficacy of 100% means that no disease is observed.

[4] = method [a]: LC-UV, acidic range, 0.1% formic acid in water and acetonitrile as eluent

| SMILES | LogP [2] | also measured |
| --- | --- | --- |
| CC(O)(Cn1cncn1)c1ccc(Oc2ccc(Cl)cc2)cc1C(F)(F)F (centres unmarked) [reference compound] | – | pest or weed control at 10 ppm (Sphaerotheca fuliginea [1]): 30% |
| O=C(Cn1cncn1)c1cnc(Oc2ccc(Cl)cc2)cc1C(F)(F)F [VII.02, 1-[6-(4-chlorophenoxy)-4-(trifluoromethyl)-3-pyridyl]-2-(1,2,4-triazol-1-yl)ethanone] | – | chromatographic logP ([2]; method [a], compounds of formula (VII), Table 4): 2.92; pest or weed control at 500 ppm (Uromyces appendiculatus): 80 to 89%; pest or weed control at 500 ppm (Puccinia recondita): 90 to 100%; pest or weed control at 500 ppm (Sphaerotheca fuliginea [3]): 90 to 100% |
| OC(Cn1cncn1)c1cnc(Oc2ccc(Cl)cc2)cc1C(F)(F)F (centres unmarked) [I.04, 1-[6-(4-chlorophenoxy)-4-(trifluoromethyl)-3-pyridyl]-2-(1,2,4-triazol-1-yl)ethanol] | – | chromatographic logP [2, 4]: 2.68; pest or weed control at 500 ppm (Uromyces appendiculatus): 90 to 100%; pest or weed control at 500 ppm (Puccinia recondita): 90 to 100%; pest or weed control at 500 ppm (Sphaerotheca fuliginea [3]): 90 to 100% |
| O=C(Cn1cncn1)c1cnc(Oc2ccc(C(F)F)cc2)cc1C(F)(F)F [VII.29] | 2.80^[a] | – |
| CC(=O)c1ccc(Oc2ccc(Cl)cc2)nn1 [V.13] | 2.73^[a] | – |
| CCCCC(O)(Cn1cncn1)c1ccc(Oc2ccc(Cl)cc2)nc1C(F)(F)F (centres unmarked) [I.98] | 3.87^[a] | – |
| CC(=O)c1cnc(Oc2ccc(Cl)cc2)cc1C(C)=O [V.19] | 3.11^[a] | – |
| OC(Cn1cncn1)c1ccc(Oc2ccc(Cl)cc2)nc1C(F)F (racemic) [I.25] | 2.44^[a] | – |
| OC(Cn1cncn1)c1ccc(Oc2ccc(Cl)cc2)nc1F (centres unmarked) [I.41] | 2.23^[a] | – |
| O=C(CBr)c1cnc(Oc2ccc(Cl)cc2F)cc1C(F)(F)F [VI.24] | 4.34^[a] | – |
| FC(F)c1ccc(Oc2ccc(C3(C4CC4)CO3)c(C(F)(F)F)n2)cc1 (centres unmarked) [IX.05] | 4.49^[a] | – |
| OC(Cn1cncn1)c1ccc(Oc2ccc(Br)cc2)nc1C(F)(F)F (centres unmarked) [I.40] | 2.82^[a] | – |
| CCC(O)(Cn1cncn1)c1ccc(Oc2ccc(Cl)cc2)nc1C(F)(F)F (centres unmarked) [I.103] | 3.19^[a] | – |
| CC(O)(Cn1cncn1)c1ccc(Oc2ccc(Cl)cc2F)nc1C(F)(F)F (centres unmarked) [I.89] | 3.15^[a] | – |
| FC(F)(F)c1nc(Oc2ccc(Br)cc2)ccc1C1(C2CC2)CO1 (centres unmarked) [IX.08] | 5.11^[a] | – |
| O=C(Cn1cncn1)c1cnc(Oc2ccc(Cl)cc2F)cc1C(F)(F)F [VII.30] | 3.06^[a] | – |
| CC(=O)c1cnc(Oc2ccc(Cl)cc2)cc1C(F)(F)F [V.02, 1-[6-(4-chlorophenoxy)-4-(trifluoromethyl)-3-pyridyl]ethanone] | – | chromatographic logP [2, 4]: 3.89 |
| O=C(Cn1cncn1)c1ncc(Oc2ccc(Cl)cc2)nc1Cl [VII.23] | 2.54^[a] | – |
| CC(=O)c1cnc(Oc2ccc(Br)cc2)cc1C(F)F [V.36] | 3.74^[a] | – |
| CC(=O)c1cnc(Oc2ccc(Cl)cc2)cc1C(F)F [V.37] | 3.57^[a] | – |
| Cc1cc(Cl)ccc1Oc1ccc(C(=O)Cn2cncn2)c(Cl)n1 [VII.10] | 2.94^[a] | – |

| SMILES | LogP [2] | also measured |
| --- | --- | --- |
| O=C(CCl)c1ccc(Oc2c(F)cc(Cl)cc2F)nc1C(F)(F)F [VI.31] | 4.26^[a] | – |
| CC(=O)c1ccc(Oc2ccc(F)cc2)nc1Cl [V.12] | 3.11^[a] | – |
| O=C(CCl)c1ccc(Oc2ccc(Cl)cc2F)nc1C(F)(F)F [VI.35] | 4.11^[a] | – |
| O=C(Cn1cncn1)c1ccc(Oc2ccc(Cl)cc2)nc1OC(F)(F)F [VII.18] | 3.23^[a] | – |
| COc1ccc(Oc2ccc(C(=O)CCl)c(Cl)n2)c(Cl)c1 [VI.13] | 3.71^[a] | – |
| CC(O)(Cn1cncn1)c1cnc(Oc2ccc(S(F)(F)(F)(F)F)cc2)cc1C(F)(F)F (centres unmarked) [I.37] | 3.33^[a] | – |
| OC(Cn1cncn1)c1ccc(Oc2ccc(F)cc2)nc1Cl (racemic) [I.17] | 2.08^[a] | – |
| O=C(CBr)c1ccc(Oc2ccc(Cl)c(Cl)c2)nc1Cl [VI.07] | 4.58^[a] | – |
| O=C(Cn1cncn1)c1cnc(Oc2ccc(Cl)cc2)cc1Cl [VII.38] | 2.60^[a] | – |
| CC(O)(Cn1cncn1)c1ccc(Oc2ccc(Cl)cc2)nc1OC(F)(F)F (racemic) [I.33] | 3.29^[a] | – |
| OC(Cn1cncn1)c1ccc(Oc2ccc(Cl)cc2Cl)nc1Cl (racemic) [I.23] | 2.75^[a] | – |
| O=C(CCl)c1ccc(Oc2ccc(Cl)cc2)nc1C(F)F [VI.11] | 3.62^[a] | – |
| OC(Cn1cncn1)c1cnc(Oc2ccc(S(F)(F)(F)(F)F)cc2)cc1C(F)(F)F (single isomer, unassigned) [I.83] | 3.11^[a] | – |
| COc1ccc(Oc2ccc(C(C)(O)Cn3cncn3)c(Cl)n2)c(Cl)c1 (racemic) [I.31] | 2.56^[a] | – |
| O=C(CBr)c1ccc(Oc2ccc(C(F)F)cc2)nc1Cl [VI.17] | 3.57^[a] | – |
| O=C(Cn1cncn1)c1ccc(Oc2ccc(Cl)cc2Cl)nc1Cl [VII.16] | 3.02^[a] | – |
| O=C(CCl)c1cnc(Oc2ccc(Br)cc2)cc1C(F)(F)F [VI.23] | 4.16^[a] | – |
| O=C(CCl)c1ccc(Oc2ccc(C(F)(F)F)cc2)nc1C(F)(F)F [VI.28] | 4.19^[a] | – |
| O=C(Cn1cncn1)c1cnc(Oc2ccc(S(F)(F)(F)(F)F)cc2)cc1C(F)(F)F [VII.21] | 3.35^[a] | – |
| O=C(c1ccc(Oc2ccc(Br)cc2)nc1C(F)(F)F)C1CC1 [V.40] | 4.49^[a] | – |
